Data reported in ChEMBL document CHEMBL4507281, “Data for DCP probe BI-4394” (2021).

Tests used:
Conditions in all cases: Compound concentration 10.0 uM
[1] = target: Histamine H2 receptor (Homo sapiens) (UniProt P25021)
[2] = target: Dual specificity mitogen-activated protein kinase kinase 1 (Homo sapiens) (UniProt Q02750)
[3] = target: T1, Aurora kinase A (Homo sapiens) (UniProt O14965)
T1 sequence (whole entry): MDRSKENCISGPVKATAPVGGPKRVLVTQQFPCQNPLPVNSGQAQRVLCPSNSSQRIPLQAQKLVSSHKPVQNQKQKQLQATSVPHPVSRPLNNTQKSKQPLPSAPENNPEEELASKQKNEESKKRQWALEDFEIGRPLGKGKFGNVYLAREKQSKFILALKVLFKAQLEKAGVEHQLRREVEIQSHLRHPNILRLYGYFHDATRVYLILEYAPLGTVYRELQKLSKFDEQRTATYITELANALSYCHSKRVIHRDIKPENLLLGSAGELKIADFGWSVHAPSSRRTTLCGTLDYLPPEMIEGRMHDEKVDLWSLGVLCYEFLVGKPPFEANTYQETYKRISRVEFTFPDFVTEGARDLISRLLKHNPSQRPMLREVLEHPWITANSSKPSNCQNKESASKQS

Sequence of Histamine H2 receptor (Homo sapiens) (P25021 whole entry): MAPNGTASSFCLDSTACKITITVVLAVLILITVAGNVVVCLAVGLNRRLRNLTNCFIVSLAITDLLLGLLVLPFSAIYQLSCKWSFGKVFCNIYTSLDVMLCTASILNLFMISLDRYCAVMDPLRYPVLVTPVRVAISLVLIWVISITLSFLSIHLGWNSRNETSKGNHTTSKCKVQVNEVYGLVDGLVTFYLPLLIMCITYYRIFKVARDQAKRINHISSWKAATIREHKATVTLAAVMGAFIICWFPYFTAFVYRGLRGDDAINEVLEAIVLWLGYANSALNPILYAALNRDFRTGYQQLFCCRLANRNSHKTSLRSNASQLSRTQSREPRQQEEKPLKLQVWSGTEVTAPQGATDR
Sequence of Dual specificity mitogen-activated protein kinase kinase 1 (Homo sapiens) (Q02750 whole entry): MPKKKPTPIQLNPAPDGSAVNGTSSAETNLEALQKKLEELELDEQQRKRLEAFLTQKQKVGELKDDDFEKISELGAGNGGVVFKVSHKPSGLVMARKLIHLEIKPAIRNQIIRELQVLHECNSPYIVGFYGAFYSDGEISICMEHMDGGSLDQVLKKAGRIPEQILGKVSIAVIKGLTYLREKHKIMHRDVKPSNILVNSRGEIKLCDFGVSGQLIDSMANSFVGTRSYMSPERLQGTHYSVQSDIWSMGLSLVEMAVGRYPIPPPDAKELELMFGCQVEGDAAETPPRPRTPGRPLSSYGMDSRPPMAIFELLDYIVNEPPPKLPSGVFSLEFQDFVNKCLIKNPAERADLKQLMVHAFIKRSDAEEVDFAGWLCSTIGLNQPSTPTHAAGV

SMILES	inhibition [1] [%]	residual activity [2] [%]	residual activity [3] [%]
Cn1nc(C(=O)NCc2ccc(C(=O)O)cc2)cc1-c1ccc2[nH]ccc2c1 [BI 4395]	8.57	–	–
CCOC(=O)c1cc2cc(-c3cc(C(=O)NCc4ccc(C(=O)O)cc4)nn3C)ccc2[nH]1 [BI 4394]	–	78	-1
